# Measured values as given in patent publication US11896704B2, “Compounds useful for the treatment and/or care of the skin, hair, nails and/or mucous membranes” (LUBRIZOL ADVANCED MATERIALS, INC., priority 2017, dated 2024).
# Experiments:
# [1] = test system: PER3 (period circadian clock 3); assay: PER genes expression in young and old HEKa, real time PCR: PER3; type: cell-based, Human; settings: 0.5 mg/ml
# Procedure: In Vitro Study of PER Genes Expression in Young and Old Human Epidermal Keratinocytes (HEKa) Using Real Time PCR Arrays. Human Epidermal Keratinocytes, (HEKa) cells (Life Technologies) from donor one and donor two are seeded at 3.0×10^5 cells/well in 12-well plates and incubated in culture medium, Keratinocyte growth medium supplemented with Mix C39016-CaCl2 solution (Promocell). For synchronization, cells were subjected to two alternative cycles of 12 hours each at 37° C. in 5% CO2 humidified air (day mode) and 33° C. in 5% CO2 humidified air (night mode). 12 hours after starting synchronization, cells are incubated with the synthetic peptide […] (PEP-1, H-[SEQ ID. NO. 2]-NH2) at 0.5 mg/ml in culture medium. Cells treated with medium alone are used as basal condition. At the end of synchronization, cell lysates are collected at 7:30 hour (early morning point). […] After RNA elution, quantification and analysis of purity of RNA samples are performed with a nanodrop (Thermo). […] SYBR Green binds to double-stranded DNA molecules and emits fluorescence which is quantified, and the fluorescence intensity is proportional to the amount of the product in the PCR reaction. […] Fold change relative to the expression of the sample genes and reference genes is calculated using normalized expression (ΔΔ(Ct)) method using CFX Manager SoftwareTM (BioRad).
# [2] = test system: PER3 (period circadian clock 3); assay: Clock gene expression in synchronized HEKa, real time PCR: PER3; type: cell-based, Human; settings: 0.5 mg/ml
# Procedure: In Vitro Study of Clock Genes Expression in Synchronized Human Epidermal Keratinocytes from Adult (HEKa) Using Real Time PCR Arrays. HEKa cells (Life Technologies) are seeded at 3.0×10^5 cells/well in 12-well plates and incubated in culture medium, Keratinocyte growth medium supplemented with Mix C39016-CaCl2 solution (Promocell). For synchronization, cells were subjected to two alternative cycles of 12 hours each at 37° C. in 5% CO2 humidified air (day mode) and 33° C. in 5% CO2 humidified air (night mode). 12 hours after starting synchronization, cells are incubated with the synthetic peptide […] (PEP-1, H-[SEQ ID. NO. 2]-NH2) at 0.5 mg/ml in culture medium. Cells treated with medium alone are used as basal condition. At the end of synchronization, cell lysates are collected at two different times: 7:30 hour (early morning point) and 11:30 hour (midday point). […] After RNA elution, quantification and analysis of purity of RNA samples are performed with a nanodrop (Thermo). […] SYBR Green binds to double-stranded DNA molecules and emits fluorescence which is quantified, and the fluorescence intensity is proportional to the amount of the product in the PCR reaction. […] Fold change relative to the expression of the sample genes and reference genes is calculated using normalized expression (ΔΔ(Ct)) method using CFX Manager Software (BioRad).
# [3] = test system: Phenion Full-Thickness Skin models; assay: Lipidomics profile (UHPLC-MS) in synchronized human full-thickness skin models; type: cell-based; settings: 0.5 mg/ml, 48 hours of treatment, 7:30 h, one assay
# Excerpt: Analysis of Lipidomics Profile in Synchronized Human Full-Thickness Skin Models. Lipidomic profile from human skin models can be assessed by measuring using an ultrahigh performance liquid chromatography-mass spectrometry (UHPLC-MS). The main objective of this experiment is to evaluate the lipidomic profile of synchronized human skin models after the treatment with the peptide […] (PEP-1, H-[SEQ ID. NO. 2]-NH2) in order to determine ceramide skin content and the PC-DHA/PC ratio. After arrival, the Phenion® Full-Thickness Skin models ([…]) are placed in Petri dishes (5 skin models per condition) according to the supplier's instructions in ALI medium ([…]). After 72 hours incubation at 37° C., 5% CO2, a synchronization protocol is initialized. For this purpose, skin models are subjected to two alternative cycles of 12 hours each at 37° C. in 5% CO2 humidified air (day mode) and 33° C. in 5% CO2 humidified air (night mode). Skin models are treated with the peptide […] (PEP-1, H-[SEQ ID. NO. 2]-NH2) at 0.5 mg/ml both in the above surface (50 μl of treatment) of the models and within the Petri-dish containing medium. Skin models treated with medium are used as a basal control condition. This treatment is […] hours in the same conditions. […] These values are calculated for one assay. […] These values are calculated for one assay.
substance,measurement,setting,value
H-Phe-Trp-Met-Lys-Arg-Lys-Arg-Val-Pro-NH2 (H-FWMKRKRVP-NH2) [PEP-1],Fold induction at 7:30 h respect to Basal condition (%),"[1]; PER3, HEKa from donor one",182.5%
same,Fold induction at 7:30 h respect to Basal condition (%),"[1]; PER3, HEKa from donor two",249.0%
same,Fold induction respect to Basal condition at 7:30 h (%),[2],182.5%
same,Ceramides amount (%),[3]; relative to basal condition 7:30 h,147.6%
same,Percentage PC-DHA/PC ratio (%),[3]; relative to basal conditions 7:30 h,120.2%
